Results reported in publication PMC4148704, “Agaricus meleagris pyranose dehydrogenase: Influence of covalent FAD linkage on catalysis and stability” (Archives of Biochemistry and Biophysics, 2014).

Biological target: T1, AmPDH (Agaricus meleagris pyranose dehydrogenase) (Macropsalliota meleagris, UniProt Q3L245)
T1 construct: gene pdh1; recombinant from Pichia pastoris X-33, secreted glycoprotein, about 75 kDa, monomer, 577 amino acids, covalent 8alpha-N(3)-histidyl FAD at H103
Assay: stopped-flow reductive half-reaction, […] nm
Format: biochemical
Conditions: pH 7.5, 65 mM sodium phosphate, 30 °C; 0.1-5 mM D-glucose; only a bimolecular rate constant

T1 sequence (Q3L245 26-602): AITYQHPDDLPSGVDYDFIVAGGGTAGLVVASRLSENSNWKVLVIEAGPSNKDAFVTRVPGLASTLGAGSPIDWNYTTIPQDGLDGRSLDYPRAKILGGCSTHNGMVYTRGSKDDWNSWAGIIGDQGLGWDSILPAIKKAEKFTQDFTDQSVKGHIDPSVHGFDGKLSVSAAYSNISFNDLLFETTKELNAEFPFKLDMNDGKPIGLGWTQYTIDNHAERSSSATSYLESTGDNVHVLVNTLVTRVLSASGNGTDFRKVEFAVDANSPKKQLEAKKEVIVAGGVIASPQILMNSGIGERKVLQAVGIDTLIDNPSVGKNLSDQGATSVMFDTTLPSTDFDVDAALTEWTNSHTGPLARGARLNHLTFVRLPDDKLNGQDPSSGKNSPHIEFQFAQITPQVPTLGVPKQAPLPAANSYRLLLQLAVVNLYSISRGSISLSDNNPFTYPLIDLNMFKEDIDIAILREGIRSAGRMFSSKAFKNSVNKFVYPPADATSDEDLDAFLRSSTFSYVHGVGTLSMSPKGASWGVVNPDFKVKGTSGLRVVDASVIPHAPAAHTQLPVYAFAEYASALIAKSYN

OC[C@H]1OC(O)[C@H](O)[C@@H](O)[C@@H]1O (stereo partly drawn) [D-glucose]
kapp: spectral changes of wild-type AmPDH upon addition of D-glucose
